# Like-named read-outs stand apart in the source and are kept apart here.
# Legend:
# [1] = test system: PKC mediated IL-2 production; test: IL-2 ELISA, human primary T cell, anti CD3+CD28+ (whole cell functional assay); assay type: cell-based; settings: T-cell
# Method in brief: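 Anti-CD3/CD28-expanded human primary T cells (100,000/well), pre-incubated 1 h at 37° C with compound, then stimulated on plates coated with 1 μg/ml αCD3 and 5 μg/ml αCD28. Counter assay used 0.5 ng/ml PMA plus 0.1 μM ionomycin (final). Supernatant IL-2 measured by ELISA after 24 h.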
# [2] = test system: PLP induced experimental autoimmune encephalomyelitis (EAE); test: PLP induced experimental autoimmune encephalomyelitis (EAE) model in SJL mice; assay type: in vivo; settings: Mus musculus, both pretreatment and treatment dosing
# Excerpt: EAE is a useful model for multiple sclerosis (MS), an autoimmune disease of the CNS that is caused by immune-cell infiltration of the CNS white matter. Inflammation and subsequent destruction of myelin cause progressive paralysis. Like the human disease, EAE is associated with peripheral activation of T cells autoreactive with myelin proteins, such as myelin basic protein (MBP), proteolipid protein (PLP), or myelin oligodendrocyte protein (MOG). Activated neuroantigen-specific T cells pass the blood-brain barrier, leading to focal mononuclear cell infiltration and demyelination. EAE can be induced in susceptible mouse strains by immunization with myelin-specific proteins in combination with adjuvant. In the SJL mouse model used in these studies, hind limb and tail paralysis is apparent by Day 10 after immunization, the peak of disease severity can be observed between Days 10 and 14, and a cycle of partial spontaneous remission followed by relapse can be observed up to Day 35.
# In the SJL murine model of EAE, each mouse is sensitized with PLP/CFA. (150 μg PLP139-151 with 200 μg CFA in 0.05 ml of homogenate on four sites of hind flank for a total of 0.2 ml emulsion is used to induce EAE). […] In both protocols, clinical scores are monitored daily, and body weights are measured twice weekly. […]
# [3] = Homo sapiens, 24 h, IL-2 production, human primary T cells stimulated with αCD3 and αCD28, 24 hours, IL-2 by ELISA, read-out: EC50
# [4] = Homo sapiens, human primary T cells stimulated with αCD3 and αCD28, IL-2 by ELISA, read-out: EC50 (blocked IL-2 production)
# [5] = human primary T cells stimulated with αCD3 and αCD28, IL-2 by ELISA, read-out: EC50 (blocked IL-2 production)
# [6] = IL-2 production, human primary T cells stimulated with αCD3 and αCD28, 24 hours, IL-2 by ELISA, read-out: EC50
"EC50 [1, 3] [µM]","EC50 [1, 4] [µM]",SMILES,ED50 [2] [mg/kg],"EC50 [1, 5] [µM]","EC50 [1, 6] [µM]"
< 0.1,< 10,"Cn1nnn(-c2cc(Nc3ncc(C#N)c(N[C@@H]4C[C@@H]5CCCN5C(C)(C)C4)n3)c(F)cc2OCCO)c1=O [Compound 78, 4-((7R,8aS)-octahydro-5,5-dimethylindolizin-7-ylamino)-2-(4-(2-hydroxyethoxy)-2-fluoro-5-(4,5-dihydro-4-methyl-5-oxotetrazol-1-yl)phenylamino)pyrimidine-5-carbonitrile]",,,
< 0.1,< 10,"C[C@H](O)COc1cc(F)c(Nc2ncc(C#N)c(N[C@@H]3C[C@@H]4CCCN4C(C)(C)C3)n2)cc1-n1nnn(C)c1=O [Compound 79, 4-((7R,8aS)-octahydro-5,5-dimethylindolizin-7-ylamino)-2-(4-((S)-2-hydroxypropoxy)-2-fluoro-5-(4,5-dihydro-4-methyl-5-oxotetrazol-1-yl)phenylamino)pyrimidine-5-carbonitrile]",,,
< 0.1,< 10,"Cn1nnn(-c2cc(Nc3ncc(C#N)c(N[C@@H]4C[C@@H]5CCCN5C(C)(C)C4)n3)c(F)cc2OCC(C)(C)O)c1=O [Compound 80, 4-((7R,8aS)-octahydro-5,5-dimethylindolizin-7-ylamino)-2-(4-(2-hydroxy-2-methylpropoxy)-2-fluoro-5-(4,5-dihydro-4-methyl-5-oxotetrazol-1-yl)phenylamino)pyrimidine-5-carbonitrile]",,,
< 0.5,< 10,"Cn1nnn(-c2cc(Nc3ncc(C#N)c(N[C@@H]4C[C@@H]5CCCN5C(C)(C)C4)n3)c(F)cc2OC(C)(C)CO)c1=O [Compound 84, 4-((7R,8aS)-octahydro-5,5-dimethylindolizin-7-ylamino)-2-(4-(1-hydroxy-2-methylpropan-2-yloxy)-2-fluoro-5-(4,5-dihydro-4-methyl-5-oxotetrazol-1-yl)phenylamino)pyrimidine-5-carbonitrile]",,,
< 0.5,< 10,"Cn1nnn(-c2cc(Nc3ncc(F)c(N[C@@H]4C[C@@H]5CCCN5C(C)(C)C4)n3)c(F)cc2OC(C)(C)CO)c1=O [Compound 85, 1-(2-(1-hydroxy-2-methylpropan-2-yloxy)-5-(4-((7R,8aS)-octahydro-5,5-dimethylindolizin-7-ylamino)-5-fluoropyrimidin-2-ylamino)-4-fluorophenyl)-4-methyl-1H-tetrazol-5(4H)-one]",,,
< 0.1,< 10,"Cn1nnn(-c2cc(Nc3ncc(F)c(N[C@@H]4C[C@@H]5CCCN5C(C)(C)C4)n3)c(F)cc2OCC(C)(C)O)c1=O [Compound 87, 1-(5-(4-((7R,8aS)-5,5-dimethyloctahydroindolizin-7-ylamino)-5-fluoropyrimidin-2-ylamino)-4-fluoro-2-(2-hydroxy-2-methylpropoxy)phenyl)-4-methyl-1H-tetrazol-5(4H)-one]",,,
< 0.1,< 10,"C[C@@H](O)COc1cc(F)c(Nc2ncc(C#N)c(N[C@@H]3C[C@@H]4CCCN4C(C)(C)C3)n2)cc1-n1nnn(C)c1=O [Compound 90, 4-((7R,8aS)-octahydro-5,5-dimethylindolizin-7-ylamino)-2-(4-((R)-2-hydroxypropoxy)-2-fluoro-5-(4,5-dihydro-4-methyl-5-oxotetrazol-1-yl)phenylamino)pyrimindine-5-carbonitrile]",,,

# More lines, now with the values behind:
SMILES,"EC50 [1, 3] [µM]","EC50 [1, 4] [µM]",ED50 [2] [mg/kg],"EC50 [1, 5] [µM]","EC50 [1, 6] [µM]"
"Cn1nnn(-c2cc(Nc3ncc(F)c(N[C@@H]4C[C@@H]5CCCN5C(C)(C)C4)n3)c(F)cc2C2CC2)c1=O [Compound 17, 1-(5-(4-((7R,8aS)-octahydro-5,5-dimethylindolizin-7ylamino)-5-fluoropyrimidin-2-yl-amino)-2-cyclopropyl-4-fluorophenyl)-4-methyl-1H-tetrazol-5(4H)-one]",< 0.1,< 10,30,,
"Cn1nnn(-c2cc(Nc3ncc(F)c(N[C@@H]4C[C@@H]5CCCN5C(C)(C)C4)n3)c(F)cc2OCCO)c1=O [Compound 77, 1-(2-(2-hydroxyethoxy)-5-(4-((7R,8aS)-octahydro-5,5-dimethylindolizin-7-ylamino)-5-fluoropyrimidin-2-ylamino)-4-fluorophenyl)-4-methyl-1H-tetrazol-5(4H)-one]",,,,< 10,
"C[C@H](O)COc1cc(F)c(Nc2ncc(F)c(N[C@@H]3C[C@@H]4CCCN4C(C)(C)C3)n2)cc1-n1nnn(C)c1=O [Compound 81, 1-(2-((S)-2-hydroxypropoxy)-5-(4-((7R,8aS)-octahydro-5,5-dimethylindolizin-7-ylamino)-5-fluoropyrimidin-2-ylamino)-4-fluorophenyl)-4-methyl-1H-tetrazol-5(4H)-one]",,< 10,,,< 0.1
"C[C@@H](O)COc1cc(F)c(Nc2ncc(F)c(N[C@@H]3C[C@@H]4CCCN4C(C)(C)C3)n2)cc1-n1nnn(C)c1=O [Compound 82, 1-(5-(4-((7R,8aS)-5,5-dimethyloctahydroindolizin-7-ylamino)-5-fluoropyrimidin-2-ylamino)-4-fluoro-2-((R)-2-hydroxypropoxy)phenyl)-4-methyl-1H-tetrazol-5(4H)-one]",,,,< 10,< 0.1
"Cn1nnn(-c2cc(Nc3ncc(C#N)c(N[C@@H]4C[C@@H]5CCCN5C(C)(C)C4)n3)ccc2OC(C)(C)CO)c1=O [Compound 83, 4-((7R,8aS)-octahydro-5,5-dimethylindolizin-7-ylamino)-2-(4-(1-hydroxy-2-methylpropan-2-yloxy)-3-(4,5-dihydro-4-methyl-5-oxotetrazol-1-yl)phenylamino)pyrimidine-5-carbonitrile]",< 0.1,< 10,,,
"Cn1nnn(-c2cc(Nc3ncc(F)c(N[C@@H]4C[C@@H]5CCCN5C(C)(C)C4)n3)ccc2OC(C)(C)CO)c1=O [Compound 86, 1-(2-(1-hydroxy-2-methylpropan-2-yloxy)-5-(4-((7R,8aS)-octahydro-5,5-dimethylindolizin-7-ylamino)-5-fluoropyrimidin-2-ylamino)phenyl)-4-methyl-1H-tetrazol-5(4H)-one]",< 0.1,< 10,,,
"Cn1nnn(-c2cc(Nc3ncc(F)c(N[C@@H]4C[C@@H]5CCCN5C(C)(C)C4)n3)c(F)cc2OC2COC2)c1=O [Compound 88, 1-(5-(4-((7R,8aS)-octahydro-5,5-dimethylindolizin-7-ylamino)-5-fluoropyrimidin-2-ylamino)-4-fluoro-2-(oxetan-3-yloxy)phenyl)-4-methyl-1H-tetrazol-5(4H)-one]",< 0.5,< 10,,,
"Cn1nnn(-c2cc(Nc3ncc(F)c(N[C@@H]4C[C@@H]5CCCN5C(C)(C)C4)n3)c(F)cc2O)c1=O [Compound 89, 1-(5-(4-((7R,8aS)-octahydro-5,5-dimethylindolizin-7-ylamino)-5-fluoropyrimidin-2-ylamino)-4-fluoro-2-hydroxyphenyl)-4-methyl-1H-tetrazol-5(4H)-one]",< 10,< 10,,,

# Source: patent publication US10792282B2, “Protein kinase C inhibitors and uses thereof” (Rigel Pharmaceuticals, Inc., priority 2013, dated 2020)
